Reference: ChEMBL document CHEMBL4393664, “2,4-Disubstituted quinazolines targeting breast cancer cells via EGFR-PI3K” (Eur J Med Chem, 2019)

What was measured:
Format in all cases: functional, cell-based
MDA-MB-231 = assay: Cytotoxicity against human MDA-MB-231 cells assessed as reduction in cell viability after 72 hrs by MTT assay; details: MDA-MB-231, 72 h
MCF7 = assay: Cytotoxicity against human MCF7 cells assessed as reduction in cell viability after 72 hrs by MTT assay; details: MCF7, 72 h
PC-3 = assay: Cytotoxicity against human PC3 cells assessed as reduction in cell viability after 72 hrs by MTT assay; details: PC-3, 72 h
HGC-27 = assay: Cytotoxicity against human HGC27 cells assessed as reduction in cell viability after 72 hrs by MTT assay; details: HGC-27, 72 h
MGC-803 = assay: Cytotoxicity against human MGC803 cells assessed as reduction in cell viability after 72 hrs by MTT assay; details: MGC-803, 72 h

SMILES	IC50 (MDA-MB-231)	IC50 (MCF7)	IC50 (PC-3)	IC50 (HGC-27)	IC50 (MGC-803)
CCCCCCCCCCCCNc1nc(SCc2ccc(C(F)(F)F)cc2)nc2ccccc12	> 50 µM	> 50 µM	26 µM	38.7 µM	> 50 µM
FC(F)(F)c1ccc(CSc2nc(Nc3cccc(C(F)(F)F)c3)c3ccccc3n2)cc1	11.1 µM	15.3 µM	12.9 µM	11.7 µM	15.1 µM
FC(F)(F)c1ccc(CSc2nc(Nc3ccccc3Cl)c3ccccc3n2)cc1	> 50 µM	> 50 µM	20.4 µM	> 50 µM	> 50 µM
CCOc1ccccc1Nc1nc(SCc2ccc(C(F)(F)F)cc2)nc2ccccc12	> 50 µM	> 50 µM	26.2 µM	> 50 µM	> 50 µM
FC(F)(F)c1ccc(CSc2nc(Nc3cccc(Br)c3)c3ccccc3n2)cc1	22.1 µM	25.6 µM	8.68 µM	18.3 µM	23.7 µM
O=[N+]([O-])c1cccc(Nc2nc(SCc3ccc(C(F)(F)F)cc3)nc3ccccc23)c1	31.5 µM	> 50 µM	13.5 µM	> 50 µM	> 50 µM
Fc1ccc(Nc2nc(SCc3ccc(C(F)(F)F)cc3)nc3ccccc23)cc1Cl	14.5 µM	23 µM	18.6 µM	14.7 µM	> 50 µM
COc1cc(Nc2nc(SCc3ccc(C(F)(F)F)cc3)nc3ccccc23)cc(OC)c1	16.1 µM	6.99 µM	> 50 µM	> 50 µM	8.58 µM
COc1ccccc1Nc1nc(SCc2ccc(C(F)(F)F)cc2)nc2ccccc12	> 50 µM	> 50 µM	14.1 µM	> 50 µM	> 50 µM
FC(F)(F)c1ccc(CSc2nc(Nc3ccc(Cl)cc3)c3ccccc3n2)cc1	15.1 µM	21.5 µM	7.11 µM	14.1 µM	16.8 µM
COc1ccc(Nc2nc(SCc3ccc(C(F)(F)F)cc3)nc3ccccc23)cc1OC	18.9 µM	> 50 µM	14.1 µM	17.9 µM	16.3 µM
Fc1ccc(Nc2nc(SCc3ccc(C(F)(F)F)cc3)nc3ccccc23)cc1	15 µM	36.3 µM	7.07 µM	19.5 µM	9.62 µM
FC(F)(F)c1ccc(CSc2nc(N3CCCCC3)c3ccccc3n2)cc1	28.4 µM	> 50 µM	25.5 µM	> 50 µM	18.6 µM
COc1ccc(Nc2nc(SCc3ccc(C(F)(F)F)cc3)nc3ccccc23)cc1	15.7 µM	47.2 µM	16.7 µM	23.5 µM	13.8 µM
Cc1ccccc1Nc1nc(SCc2ccc(C(F)(F)F)cc2)nc2ccccc12	27.1 µM	37.5 µM	36.9 µM	27.5 µM	24.4 µM
COc1ccc(Nc2nc(SCc3ccc(C(F)(F)F)cc3)nc3ccccc23)c(OC)c1	> 50 µM	> 50 µM	32.5 µM	> 50 µM	> 50 µM
CCCCCCCCNc1nc(SCc2ccc(C(F)(F)F)cc2)nc2ccccc12	22.3 µM	26.1 µM	10.5 µM	13.4 µM	12.6 µM
CCCCCCCCCCCCCCNc1nc(SCc2ccc(C(F)(F)F)cc2)nc2ccccc12	> 50 µM	> 50 µM	> 50 µM	> 50 µM	> 50 µM
O=[N+]([O-])c1ccc(Nc2nc(SCc3ccc(C(F)(F)F)cc3)nc3ccccc23)cc1	8.67 µM	17.9 µM	7.9 µM	16.6 µM	8.17 µM
FC(F)(F)c1ccc(CSc2nc(Nc3ccccc3)c3ccccc3n2)cc1	18.4 µM	44 µM	20 µM	26.4 µM	22.2 µM
CCOc1ccc(Nc2nc(SCc3ccc(C(F)(F)F)cc3)nc3ccccc23)cc1	23 µM	> 50 µM	32 µM	33 µM	37 µM
CCCCCCNc1nc(SCc2ccc(C(F)(F)F)cc2)nc2ccccc12	20.2 µM	24.3 µM	19 µM	23.9 µM	13.1 µM
Cc1ccc(Nc2nc(SCc3ccc(C(F)(F)F)cc3)nc3ccccc23)cc1	> 50 µM	> 50 µM	21.1 µM	34.6 µM	36.1 µM
FC(F)(F)c1ccc(CSc2nc(Nc3cccc(Cl)c3)c3ccccc3n2)cc1	18 µM	25.1 µM	13.4 µM	19.9 µM	14.6 µM
FC(F)(F)c1ccc(CSc2nc(Nc3ccccc3C(F)(F)F)c3ccccc3n2)cc1	> 50 µM	> 50 µM	34.8 µM	> 50 µM	> 50 µM
COc1cc(Nc2nc(SCc3ccc(C(F)(F)F)cc3)nc3ccccc23)cc(OC)c1OC	> 50 µM	> 50 µM	7.37 µM	14 µM	8.24 µM
